From patent US20230173087A1, “ANTIBODY DRUG CONJUGATES WITH CLEAVABLE LINKERS” (Heidelberg Pharma Research GmbH, priority 2019, published 2023)
pKd: −log10 of the molar value.

Legend:
[1] = test system: SKBR-3 (breast cancer) cells; assay: Cytotoxicity, chemiluminescent BrdU-ELISA incorporation assay on SKBR-3 cells; format: cell-based; conditions: as antibody conjugate
Experimental: Cytotoxic activity of Trastuzumab (Anti-Her2neu-specific antibody)-amatoxin conjugates was evaluated in vitro on HER2-positive tumor cell lines SKBR-3 (breast cancer), NCI-N87 (gastric cancer), and JIMT-1 (breast cancer) using a chemiluminescent BrdU-ELISA incorporation assay (Roche).

[2] = biological target: RNA polymerase II (Homo sapiens, UniProt P24928+P30876); conditions: read-out: KD of complex between amanitin and RNA polymerase II; cited from earlier work

For `CC[C@H](C)[C@@H]1NC(=O)CNC(=O)C2Cc3c([nH]c4cc(O)ccc34)[S@+]([O-])CC(NC(=O)CNC1=O)C(=O)NC(CC(N)=O)C(=O)N1CC(O)CC1C(=O)N[C@@H]([C@@H](C)[C@@H]1COC(c3ccc(NC(=O)[C@H](C)NC(=O)C(NC(=O)CCN4C(=O)C=CC4=O)C(C)C)cc3)O1)C(=O)N2` (stereo partly drawn) [HDP 30.2684, α-Amanitin-(BMP-Val-Ala-4-amino-benzylidenacetal)], the “effectiveness in vitro compared to HDP 30.1699” value [1] was “as effective as HDP 30.1699”.
In the case of amanitin, the pKd [2] is given as 8.52.
